Here are results for 3 molecules from paper PMC9763021, “Comprehensive Assessment of Biomolecular Interactions of Morpholine-Based Mixed Ligand Cu(II) and Zn(II) Complexes of 2,2′-Bipyridine as Potential Anticancer and SARS-CoV-2 Agents: A Synergistic Experimental and Structure-Based Virtual Screening” (Bioinorganic Chemistry and Applications, 2022).

Each structure is given as a SMILES string.

Assay [1] can be described thus: DPPH radical scavenging assay. The class given is biochemical. The note with it: for % Inhibition DPPH: 517 nm. As to the method:
(§1) All samples were evaluated for their scavenging ability with the help of UV-visible spectrophotometer at different concentrations of 40, 80, 120, 160, 200, and 240 μM [6, 28]. While performing the antioxidant properties for the DPPH, hydroxyl, superoxide, and nitric oxide radical scavenging, the absorbance at 517, 230, 590, and 546 nm, respectively, was closely observed. In addition, the observed IC50 values of all samples were compared with ascorbic acid.
The colour of an aqueous or methanol solution changes from deep purple to pale yellow when DPPH, a stable chromogen free radical, combines with an antioxidant molecule, which means that DPPH quickly absorbs the hydrogen or electrons from the donor groups. In this case, for the baseline correction, a blank DPPH solution in the absence of a test compound was employed, and 517 nm (ε = 8320 M^−1·cm^−1) was attained to have a significant absorption maximum. […] The DPPH radicals are reduced by an antioxidant compound (AH), in which the reduction of electronic absorbance for each compound was vigilantly noted at 517 nm. The capacity to block radicals improves as the sample concentration increases. The assessed percentage of maximum inhibition for all substances was found at 240 μM in the subsequent order: (ascorbic acid) (85.65) > (1a) 68.64 > (2a) 59.55 > (HL) 52.45. […] Moreover, the % of scavenging or maximum inhibition for all substances is estimated with the aid of equation (44) (Table S14).(43) Scavanging%=A0−AS/A0×100

A short description of assay [2]: Superoxide scavenging assay. In kind it is biochemical. The note with it: for % Inhibition superoxide: 590 nm. As to the method:
as §1
A vital enzyme catalyst in the body's defence against free radicals, superoxide dismutase (SOD) quickly and efficiently reduces toxicity and cellular damage by exchanging superoxide with water (or) harmless molecules. The % of inhibition for all substances was analyzed at 590 nm. The outcomes were obtained in the subsequent order: (ascorbic acid) 84.85 > (1a) 67.17 > (2a) 58.18 > (HL) 50.42.

Assay [3] deals with Pseudomonas aeruginosa. The experiment in a line: Agar disc diffusion, strain D. More on the design: (inhibition %): concentration or dose not given beside the values. The note with it: for diameter of the clear zone inhibition: control = 6 mm. The class given is cell-based. As to the method:
In-vitro antimicrobial properties were evaluated for all samples by the agar disc diffusion method towards different fungal and bacterial strains. Additionally, the reported inhibition zone values were comparatively analyzed with the standard antifungal drugs ketoconazole and amphotericin B as well as the standard antibiotic medications streptomycin and amikacin.
The current research has a curious focus on the in vitro antimicrobial properties of biological systems because these studies are crucial for developing effective antibacterial and antifungal medications. […] It can also be spelled out based on the chelation theory proposed by Overtone and Tweedy. Chelation theory points out that the partial exchanging of the positive charge of the metal center with donor moieties, and overlap of the ligand orbitals will reduce the greater degree of the metal ion's polarity, which ultimately rises the delocalization of π and d electrons over the full chelated ring system. By raising the size of the metal ion due to the retarding of polarization, chelation may also enhance the complexes' lipophilic characteristics, which further stimulate the lipid membrane permeability and break down the bacteria' enzymes responsible for cell wall formation, therefore slowing down the regular cell processes. By preventing the production of cell walls/proteins/DNA, including by obstructing folate metabolism and the cytoplasmic membrane, antimicrobial drugs frequently either fully eliminate microbes or only prevent their cell growth. Additionally, the samples' mode of action may be employed in disrupting the cell's respiration process by forming an H-bond during the morpholine-fused iminic group coordinated with the active metal center of its components, inhibiting proliferation of the cell. […] The difference in the antimicrobial efficacy of some of the compounds towards various microorganisms influences on the impermeability of the cells of the germs or the diversity of ribosomes of the microbes. The % of the inhibition of all substances is estimated from (45) (Table 9).
(A, B, C, D, and E are represented as gram negative bacteria species Escherichia coli, Salmonella enteric serovar typhi, Salmonella enteric serovar typhi, Pseudomonas aeruginosa, and Shigella flexneri, respectively. F & G are denoted as gram positive bacteria species Staphylococcus aureus and Bacillus cereus. H, I, and J are represented as fungal strains Aspergillus niger, Candida albicans, and Mucor indicus. Standard drugs for bacterial strains: Amikacin & Streptomycin Standard drugs for fungal strains: Ketoconazole and Amphotericin B. [Control (DMSO) = 6 mm].(44) Inhibition %=T–C/T×100, where T and C are represented as the diameter of microbial growth of the sample plates and the control plate (6 mm), respectively. Error limits ±2.5–5.0% (P ≤ 0.05).

`[Cu+2].[O-]c1ccccc1N=Cc1ccc(N2CCOCC2)cc1.[O-]c1ccccc1N=Cc1ccc(N2CCOCC2)cc1.c1ccc(-c2ccccn2)nc1` [(1a), [Cu(L)2(bpy)]]: the concentration for half-maximal inhibition (IC50) in assay [1] came out at 160 µM; in assay [2] it was 200 µM. The “% Inhibition DPPH” value is 17.53% in assay [1] (40 µM); 30.62% in assay [1] (80 µM); 35.74% in assay [1] (120 µM); 51.72% in assay [1] (160 µM); 57.95% in assay [1] (200 µM); 68.64% in assay [1] (240 µM). The “% Inhibition superoxide” value is given as 08.32% in assay [2] (40 µM); 16.45% in assay [2] (80 µM); 31.86% in assay [2] (120 µM); 47.69% in assay [2] (160 µM); 60.03% in assay [2] (200 µM); 67.17% in assay [2] (240 µM). Also, the “(inhibition %)” value in assay [3] is reported as 33%. The “diameter of the clear zone inhibition” value in assay [3] is 09 mm.
For `[O-]c1ccccc1N=Cc1ccc(N2CCOCC2)cc1.[O-]c1ccccc1N=Cc1ccc(N2CCOCC2)cc1.[Zn+2].c1ccc(-c2ccccn2)nc1` [(2a), [Zn(L)2(bpy)]], the “% Inhibition DPPH” value in assay [1] (40 µM) came to 12.75%; in assay [1] (80 µM), 24.73%; in assay [1] (120 µM), 30.02%; in assay [1] (160 µM) it was 39.68%; in assay [1] (200 µM) it was 48.79%; in assay [1] (240 µM), 59.55%. The “% Inhibition superoxide” value in assay [2] (40 µM) turned out to be 06.32%; in assay [2] (80 µM), 12.67%; in assay [2] (120 µM), 24.14%; in assay [2] (160 µM), 40.20%; in assay [2] (200 µM) it was 51.92%; in assay [2] (240 µM), 58.18%. For the same molecule, the “(inhibition %)” value in assay [3] worked out at 33%. The “diameter of the clear zone inhibition” value in assay [3] was determined as 09 mm.
Take `Oc1ccccc1N=Cc1ccc(N2CCOCC2)cc1` [(HL), 2-(4-morpholinobenzylideneamino)phenol]: the “% Inhibition DPPH” value in assay [1] (40 µM) is 09.45%; in assay [1] (80 µM) it was 15.21%; in assay [1] (120 µM), 26.36%; in assay [1] (160 µM) it was 34.56%; in assay [1] (200 µM) it was 39.41%; in assay [1] (240 µM), 52.45%. Moreover, the “% Inhibition superoxide” value in assay [2] (40 µM) was found to be 05.23%; in assay [2] (80 µM), 10.74%; in assay [2] (120 µM) it was 18.85%; in assay [2] (160 µM), 33.55%; in assay [2] (200 µM), 40.91%; in assay [2] (240 µM), 50.42%. The “(inhibition %)” value in assay [3] came out at 25%. Moreover, the “diameter of the clear zone inhibition” value in assay [3] was 08 mm.
